Results on 1 compound are retold here after patent EP1452605A1, “Method for determining antiviral activity” (Universiteit Utrecht Holding B.V., priority 2003, dated 2004).

One data set relates to HIV-1HXB2. Put plainly: HIV-1 infection of PBL, p24-core antigen ELISA. Type of data set: cell-based. As to conditions: Human immunodeficiency virus 1, 168 h; PBL infected with HIV-1HXB2, p24 antigen after 7 days. How it is done:
(§1) To correct for the input virus, an extra control consisting of medium containing the same amount of input virus as added to the cells was included in the experiment. The amount of p24 in this control was subsequently subtracted from the p24 values of the samples in order to obtain the exact amount of p24 produced by the cells. p24-core antigen quantification by ELISA After 2 or 7 days incubation, samples of the supernatants were collected, inactivated by addition of Empigen (Calbiochem, La Jolla, CA, USA) and by heat inactivation at 56°C for 30 min. p24-core antigen concentration was determined by an enzyme linked immunoabsorbent assay (ELISA) (AMPAK™, DAKO, Cambridgeshire, UK) as described previously ^18,19. The optical density values were converted into p24 concentration (ng/ml) with the use of a calibration curve made by serial dilutions of recombinant p24 protein (NIBSC, UK) that was submitted to the same treatment as the samples.
(In general: In an ELISA, binding on a coated surface is turned into a signal by an enzyme label.)

The next data set relates to CrFK cells. Put plainly: Cellular viability assay (MTT) of CrFK cells. The data set is classed as cell-based, feline.
A further data set has as its system HIV-1Ba-L. Put plainly: Entry assay: gag RNA in PBMC by real-time Taqman PCR. The data set is classed as cell-based. The settings on record: gag RNA in PBMC 2h after infection, 10 or 30 µM APHS. On the procedure:
PBMC infection with HIV-1Ba-L or HIV-1HXB2 for real-time Taqman PCR The ability of HIV-1Ba-L to enter the cells in the presence of APHS was tested using DS as positive control (entry assay). The amount of HIV-1HXB2 reverse transcription products in the presence of APHS was also tested, using AZT as positive control (reverse transcription assay). Before infection, PHA-stimulated PBMC from the PBMC batch were pre-incubated with different concentrations of APHS, DS or AZT for 24 h. […]
Real-time Taqman PCR is based on cleavage of a probe, hybridized to the target sequence by 5'-3' nuclease activity of Taq DNA polymerase during amplification, as described previously ^24. […] Once separated from the quencher, the reporter dye emits its characteristic fluorescence, which can then be measured. The amount of fluorescence measured is proportional to the amount of PCR product.
HIV-1 gag cDNA and HIV-1 (-) strong stop and gag DNA were amplified and quantified by real-time Taqman PCR as described elsewhere ^25. […] To quantify the amount of gag RNA in the samples, a cDNA standard curve was prepared from five-fold dilutions of extracted RNA from an HXB2 viral batch, of which the RNA amount was previously determined.
On the technique in general: Real-time PCR tracks product formation cycle by cycle.

Data set [1] can be described thus: Cellular viability assay (MTT) of PBL. Type of data set: cell-based. As to conditions: human, 7 days, read-out: TC50.
A further data set has as its system MHV-A59. Put plainly: MHV infection of mouse L cells, CPE scoring. The data set is classed as cell-based, Mouse hepatitis virus (MHV). The settings on record: 24h, 143 to 0.009 µM. On the procedure: (§2) After 24h, the cytopatic effect (CPE) of the virus and the cytotoxicity of the compounds were scored by microscopic observation.
For a further data set, the system named is Mouse L cells. Put plainly: Cytotoxicity in mouse L cells by microscopic observation. On the procedure: as §2
For data set [2] the following is noted: concentrations of APHS up to 100 mg/kg; cited from earlier work.
The test system of a further data set is HIV-1AT. The data set can be described thus: HIV-1 infection of PBMC, p24-core antigen ELISA. The settings on record: Human immunodeficiency virus 1, 168 h; PBMC infected with HIV-1AT, p24 antigen after 7 days. The data set is classed as cell-based. On the procedure:
as §1

In general, IC50 refers to the concentration needed to halve the response being measured. Read a high IC50 as a need for much substance. Consider `CCCCC#CCSc1ccccc1OC(C)=O` [APHS, o-(acetoxyphenyl)hept-2-ynyl sulfide], for which the IC50 with HIV-1HXB2 turned out to be 12 µM; in the data set with HIV-1AT, 7 µM. Moreover, in the data set on CrFK cells, the “cytotoxicity for CrFK cells” value was “not cytotoxic”. Also, the “viral entry” value with HIV-1Ba-L was “no inhibition of viral entry”. In data set [1], the CC50 at 168 h was found to be 147 µM. In addition, the “effect on MHV replication (CPE)” value in the data set on MHV-A59 is on record as “no effect”. The “cytotoxicity by microscopic observation” value in the data set with Mouse L cells is “not cytotoxic”. For the same compound, the “toxicity in the rat air pouch model” value in data set [2] is on record as “no toxicity”.
